Data taken from patent US20060051868A1, “Methods for increasing conifer somatic embryo initiation, capture, and multiplication” (priority 2001, published 2006).

What was measured:
[1] = tested on: Loblolly pine embryogenic cultures; test: Growth of Loblolly pine embryogenic cultures from single somatic embryos (tissue diameter, area); type: cell-based; settings: for Diameter of tissue (mm) / Approximate tissue area (mm^2): four weeks; for Diameter of tissue (mm): control 4.01; for Approximate tissue area (mm^2): control 12.6
Procedure: Three previously initiated Loblolly pine embryogenic cultures, each representing a different genotype, were grown in liquid media #1133, used as starting material for embryogenic cultures on various treatment media. Using a dissecting scope, individual stage 2 somatic embryos were extracted and placed on treatment media in the center of individual wells on a well plate. Forty embryos were prepared per treatment media, per genotype. Well plates were wrapped in Parafilm® and cultured under standard conditions at room temperature in the dark for four weeks. Embryogenic cultures derived from the single isolated embryos proliferated and spread over the surface of the culture medium. Spreading cultures were roughly circular in shape, radiating from the central embryo. At the end of four weeks, the growth of each culture was measured by measuring colony diameter using a dissecting scope ocular micrometer. Five treatment media were compared to control media #1043 (Table 21). Three media consisted of #1043 supplemented with paclobutrazol at concentrations of 0.33, 1.0 and 3.0 ppm. A B-vitamin treatment contained biotin at 0.05 ppm and folic acid at 0.5 ppm. […] The pH of media containing four different concentrations of MES was compared to that of a non-buffered control media during eight weeks of embryogenic culture growth. Maintenance cultures were established on treatment media using single isolated somatic embryos. Maintenance cultures were prepared and cultured essentially as described in Example 5. The control media was #1043. (See Table 21). The treatment media consisted of #1043 supplemented with 250, 500, 1000 and 1500 mg/l MES. Media pH was adjusted to 5.7 within all treatments prior to autoclaving, pouring and solidification. Immediately after pouring the media, and thereafter at two week intervals, media pH was measured up to the eighth week of culture growth. At each sampling time, four cultures from each media-genotype treatment were destructively sampled to measure the pH of the media directly underlying the growing embryogenic tissue. This experiment measured the effects of ABA, vitamins, culturing in a closed container, and culturing at increased atmospheric pressure on the growth of embryogenic cultures. Maintenance cultures were prepared on well plates using single somatic embryos, essentially as described in Example 5.

[2] = tested on: Loblolly pine megagametophytes; test: Initiation frequency of embryogenic cultures from Loblolly pine megagametophyte explants; type: cell-based
Procedure: Explants were megagametophytes isolated from Loblolly pine summer cones when embryos were at approximately stage 2-4. Seeds were. collected from four individual trees of diverse genotypes. Extracted seeds were soaked in running water for 10 minutes, agitated in 10% liquinox supplemented with 1.1 ml/l of Tween 20 for 10 minutes, and rinsed with water for 30 minutes. Seeds were sterilized in a laminar flow hood by agitating in 20% hydrogen peroxide for 10 minutes and rinsing with sterile deionized water. The seed coat, integuments, and nucellus were removed to isolate the megagametophytes. Culturing was performed in 24-well multi-well culture plates with each well having an approximate volume of 3.0 ml. Two ml of media was poured into each well.
Each replication consisted of eight adjacent wells on a multi-well plate, with one megagametophyte per well, providing three replications per multi-well plate. Twelve replications (for a total of 96 explants) were performed per treatment for each cone collection. The well plates were wrapped in Parafilm®, elastic wrap to minimize evaporation and incubated at 22-24° C. under dark conditions for nine weeks. Initiation frequency was scored for each dish by counting the number of explants which had successfully initiated embryogenic cultures.
The media treatments consisted of: (1) a control media #1043 (see Table 21); (2) media #1218, comprising media #1043 supplemented with 250 mg/l MES buffer; (3) media #1043 supplemented with 0.5 ppm folic acid and 0.05 ppm biotin; and (4) media #1218 supplemented with 0.5 ppm folic acid and 0.05 ppm biotin.
A representative procedure is shown for Loblolly pine. Experimental procedure follow similarly for other conifer but differ slightly in the composition of media used. […] Here, however, each treatment-genotype test consisted of ten replications of ten explants.
The cultures were covered and incubated in the dark at 24-26° C. for nine weeks.
Explants from four Loblolly pine cone collections were prepared and cultured as described in Example 2. The media treatments consisted of control media, #1218, which is media #1043 supplemented. with 250 mg/l MES, and four treatment media, which consist of media #1218 supplemented with 0.33, 1.0, 2.0, and 3.0 ppm paclobutrazol, respectively.
Four cone collections with embryos at stages 2-4 were used. Eighty explants from each cone collection on each media were tested. Seeds were removed from cones and soaked in running water for 10 min. Seeds were then agitated in 10% liquinox containing 1.1 ml/l Tween 20 for 10 min., and then rinsed with running tap water for 30 min. After transferring to a sterile hood, seeds were agitated in 20% H2O2 for 10 min., rinsed with sterile nanopure® H2O five times for 5 to 10 min. intervals, and then placed into a sterile petri dish for dissection. Seeds were dissected by splitting the seed coat, removing the integuments and nucellus. The megagametophyte was placed onto the appropriate medium. Each multi-well test plate contained 2 ml of solid media. Plates were incubated in the dark for 8 weeks and then scored.
The control media, media #1253, is described in detail in Table 16. All test media, #1275, #1421, #1422, and #1423 were comprised of the control media with the addition of a gibberellin inhibitor.

Compound	Growth of cultures, as measured by culture diameter, relative to the control ([1]; 250 mg/l MES in media #1043)	Growth of cultures, as measured by culture diameter, relative to the control ([1]; higher concentrations of MES (500, 1000, 1500 mg/l) in media #1043)	Initiation Frequency (%) ([2]; base media #1043, MES 250 mg/l, vitamins = 0.5 ppm folic acid + 0.05 ppm biotin, nine weeks, dark, control 42.9)	Diameter of tissue (mm) ([1]; 0.33 ppm in media #1043)	Approximate tissue area (mm^2) ([1]; 0.33 ppm in media #1043)	Diameter of tissue (mm) ([1]; 1.0 ppm in media #1043)	Approximate tissue area (mm^2) ([1]; 1.0 ppm in media #1043)	Diameter of tissue (mm) ([1]; 3.0 ppm in media #1043)	Approximate tissue area (mm^2) ([1]; 3.0 ppm in media #1043)	Initiation Frequency (%) ([2]; 0.33 ppm in buffered media #1218 (Media 1043 + 250 mg/l MES), control 40.5)	Initiation Frequency (%) ([2]; 0.33 ppm in media #1043, nine weeks, control 39.1)	Initiation Frequency (%) ([2]; 1.0 ppm in buffered media #1218 (Media 1043 + 250 mg/l MES), control 40.5)	Initiation Frequency (%) ([2]; 2.0 ppm in buffered media #1218 (Media 1043 + 250 mg/l MES), control 40.5)	Initiation Frequency (%) ([2]; 3.0 ppm in buffered media #1218 (Media 1043 + 250 mg/l MES), control 40.5)	Initiation Frequency (%) ([2]; base media #1253, 1.0 ppm paclobutrazol, 0.1062 ppm flurprimidol, 1.58 ppm chlormequat-Cl, 0.16 ppm succinic acid-dh, 8 weeks, dark, control 29.5)	Extrusion (%) ([2]; base media #1253, 1.0 ppm paclobutrazol, 0.1062 ppm flurprimidol, 1.58 ppm chlormequat-Cl, 0.16 ppm succinic acid-dh, 8 weeks, dark, control 58.6)
O=S(=O)(O)CCN1CCOCC1 [MES, 2-(N-morpholino)-ethanesulfonic acid]	increased	inhibited	47.7	–	–	–	–	–	–	–	–	–	–	–	–	–
CC(C)(C)[C@@H](O)[C@@H](Cc1ccc(Cl)cc1)n1cncn1 (racemic) [paclobutrazol]	–	–	–	4.13	13.4	5.00	19.6	5.23	21.5	46.8	37.3	46.0	46.1	44.7	35.3	58.1
